In ChEMBL document CHEMBL3045994, “Design, synthesis, and anticonvulsant evaluation of some novel 1, 3 benzothiazol-2-yl hydrazones/acetohydrazones” (Med Chem Res, 2012):

Experiments:
[1] = Octanol-phosphate buffer partition coefficient, log P of the compound after 24 hr; type: physicochemical
Mus musculus [2] = experiment: Neurotoxicity in Mus musculus albino CF1 (mouse) assessed as motor impairment at 300 mg/kg, ip up to 4 hr; type: toxicity, organism-based; parameters: dose 300 mg/kg, route intraperitoneal; conditions: in vivo
Mus musculus [3] = experiment: Neurotoxicity in Mus musculus albino CF1 (mouse) assessed as motor impairment at 100 mg/kg, ip after 4 hr; type: toxicity, organism-based; parameters: dose 100 mg/kg, route intraperitoneal; conditions: in vivo
Mus musculus [4] = experiment: Neurotoxicity in Mus musculus albino CF1 (mouse) assessed as motor impairment at 100 mg/kg, ip after 2 hr; type: toxicity, organism-based; parameters: dose 100 mg/kg, route intraperitoneal; conditions: in vivo
Mus musculus [5] = experiment: Neurotoxicity in Mus musculus albino CF1 (mouse) assessed as motor impairment at 100 mg/kg, ip after 1 hr; type: toxicity, organism-based; parameters: dose 100 mg/kg, route intraperitoneal; conditions: in vivo
Mus musculus [6] = experiment: Neurotoxicity in Mus musculus albino CF1 (mouse) assessed as motor impairment at 100 mg/kg, ip after 0.5 hr; type: toxicity, organism-based; parameters: dose 100 mg/kg, route intraperitoneal; conditions: in vivo
Mus musculus [7] = experiment: Neurotoxicity in Mus musculus albino CF1 (mouse) assessed as motor impairment at 100 mg/kg, ip after 0.25 hr; type: toxicity, organism-based; parameters: dose 100 mg/kg, route intraperitoneal; conditions: in vivo
Mus musculus [8] = experiment: Anticonvulsant activity in Mus musculus albino CF1 (mouse) assessed as protection against 6 Hz psychomotor seizure at 100 mg/kg, ip after 4 hr; type: functional; conditions: route intraperitoneal
Mus musculus [9] = experiment: Anticonvulsant activity in Mus musculus albino CF1 (mouse) assessed as protection against 6 Hz psychomotor seizure at 100 mg/kg, ip after 2 hr; type: functional; conditions: route intraperitoneal
Mus musculus [10] = experiment: Anticonvulsant activity in Mus musculus albino CF1 (mouse) assessed as protection against 6 Hz psychomotor seizure at 100 mg/kg, ip after 1 hr; type: functional; conditions: route intraperitoneal
Mus musculus [11] = experiment: Anticonvulsant activity in Mus musculus albino CF1 (mouse) assessed as protection against 6 Hz psychomotor seizure at 100 mg/kg, ip after 0.5 hr; type: functional; conditions: route intraperitoneal
Mus musculus [12] = experiment: Anticonvulsant activity in Mus musculus albino CF1 (mouse) assessed as protection against 6 Hz psychomotor seizure at 100 mg/kg, ip after 0.25 hr; type: functional; conditions: route intraperitoneal

| Structure (SMILES) | logP at 24 h [1] | Activity (Mus musculus [2]) | Activity (Mus musculus [3]) | Activity (Mus musculus [4]) | Activity (Mus musculus [5]) | Activity (Mus musculus [6]) | Activity (Mus musculus [7]) | Activity (Mus musculus [8]) | Activity (Mus musculus [9]) | Activity (Mus musculus [10]) | Activity (Mus musculus [11]) | Activity (Mus musculus [12]) |
| --- | --- | --- | --- | --- | --- | --- | --- | --- | --- | --- | --- | --- |
| O=C(CSc1nc2ccccc2s1)N/N=C1\C(=O)Nc2ccccc21 | 3.2 | Non-toxic | Non-toxic | Non-toxic | Non-toxic | Non-toxic | Non-toxic | 0% | 0% | 0% | 75% | 0% |
| C(=N\Nc1nc2ccccc2s1)/c1ccc(Oc2ccc3c(c2)OCO3)cc1 | 5 | Non-toxic | Non-toxic | Non-toxic | Non-toxic | Non-toxic | Non-toxic | 0% | 0% | 0% | 25% | 0% |
| O=C1Nc2ccccc2/C1=N/Nc1nc2ccccc2s1 | 3.2 | Non-toxic | Non-toxic | Non-toxic | Non-toxic | Non-toxic | Non-toxic | 0% | 25% | 25% | 0% | 0% |
| O=C(CSc1nc2ccccc2s1)N/N=C/c1ccc(Oc2ccccc2)cc1 | 5.6 | Non-toxic | Non-toxic | Non-toxic | Non-toxic | Non-toxic | Non-toxic | 0% | 0% | 50% | 25% | 50% |
| O=C(CSc1nc2ccccc2s1)N/N=C/c1ccc(Oc2ccc([N+](=O)[O-])cc2)cc1 | 5.3 | Non-toxic | Non-toxic | Non-toxic | Non-toxic | Non-toxic | Non-toxic | 0% | 0% | 25% | 0% | 0% |
| O=C(CSc1nc2ccccc2s1)N/N=C/c1ccc(Oc2ccc(Cl)cc2)cc1 | 5.6 | Non-toxic | Non-toxic | Non-toxic | Non-toxic | Non-toxic | Non-toxic | 0% | 25% | 75% | 0% | 0% |
| O=C(CSc1nc2ccccc2s1)N/N=C/c1ccc(Oc2ccc(Br)cc2)cc1 | 5.7 | Non-toxic | Non-toxic | Non-toxic | Non-toxic | Non-toxic | Non-toxic | 0% | 0% | 75% | 50% | 0% |
| O=C(CSc1nc2ccccc2s1)N/N=C/c1ccc(Oc2ccc(F)cc2)cc1 | 5.5 | Non-toxic | Non-toxic | Non-toxic | Non-toxic | Non-toxic | Non-toxic | 0% | 0% | 0% | 25% | 50% |
| Cc1cc(Oc2ccc(/C=N/NC(=O)CSc3nc4ccccc4s3)cc2)ccc1Cl | 5.7 | Non-toxic | Non-toxic | Non-toxic | Non-toxic | Non-toxic | Non-toxic | 0% | 0% | 25% | 25% | 0% |
| O=C(CSc1nc2ccccc2s1)N/N=C/c1ccc(Oc2ccc3ccccc3c2)cc1 | 5.9 | Non-toxic | Non-toxic | Non-toxic | Non-toxic | Non-toxic | Non-toxic | 0% | 0% | 0% | 25% | 0% |
| O=C(CSc1nc2ccccc2s1)N/N=C/c1ccc(Oc2ccc3c(c2)OCO3)cc1 | 5.5 | Non-toxic |  |  |  |  |  |  |  |  |  |  |

Further lines, with some results ahead:

| logP at 24 h [1] | Structure (SMILES) | Activity (Mus musculus [2]) | Activity (Mus musculus [3]) | Activity (Mus musculus [4]) | Activity (Mus musculus [5]) | Activity (Mus musculus [6]) | Activity (Mus musculus [7]) | Activity (Mus musculus [8]) | Activity (Mus musculus [9]) | Activity (Mus musculus [10]) | Activity (Mus musculus [11]) | Activity (Mus musculus [12]) |
| --- | --- | --- | --- | --- | --- | --- | --- | --- | --- | --- | --- | --- |
| 5 | Fc1ccc(Oc2ccc(/C=N/Nc3nc4ccccc4s3)cc2)cc1 | Non-toxic |  |  |  |  |  |  |  |  |  |  |
| 5.2 | C(=N\Nc1nc2ccccc2s1)/c1ccc(Oc2ccccc2)cc1 | Non-toxic | Non-toxic | Non-toxic | Non-toxic | Non-toxic | Non-toxic | 0% | 50% | 0% | 25% | 0% |
| 5.1 | O=[N+]([O-])c1ccc(Oc2ccc(/C=N/Nc3nc4ccccc4s3)cc2)cc1 | Non-toxic | Non-toxic | Non-toxic | Non-toxic | Non-toxic | Non-toxic | 0% | 0% | 50% | 25% | 50% |
| 5.4 | Cc1ccc(Oc2ccc(/C=N/Nc3nc4ccccc4s3)cc2)cc1 | Non-toxic | Non-toxic | Non-toxic | Non-toxic | Non-toxic | Non-toxic | 0% | 0% | 0% | 25% | 25% |
| 5.6 | Clc1ccc(Oc2ccc(/C=N/Nc3nc4ccccc4s3)cc2)cc1 | Non-toxic | Non-toxic | Non-toxic | Non-toxic | Non-toxic | Non-toxic | 0% | 25% | 0% | 50% | 0% |
| 5.5 | Brc1ccc(Oc2ccc(/C=N/Nc3nc4ccccc4s3)cc2)cc1 | Non-toxic | Non-toxic | Non-toxic | Non-toxic | Non-toxic | Non-toxic | 0% | 50% | 25% | 50% | 0% |
| 5.5 | Cc1cc(Oc2ccc(/C=N/Nc3nc4ccccc4s3)cc2)ccc1Cl | Non-toxic | Non-toxic | Non-toxic | Non-toxic | Non-toxic | Non-toxic | 0% | 0% | 0% | 0% | 25% |
| 5.6 | C(=N\Nc1nc2ccccc2s1)/c1ccc(Oc2ccc3ccccc3c2)cc1 | Non-toxic | Non-toxic | Non-toxic | Non-toxic | Non-toxic | Non-toxic | 0% | 50% | 25% | 0% | 25% |
| 5.7 | Cc1ccc(Oc2ccc(/C=N/NC(=O)CSc3nc4ccccc4s3)cc2)cc1 | Non-toxic |  |  |  |  |  |  |  |  |  |  |
